Target: T1, recombinant murine Aurora A enzyme (Mus musculus, UniProt P97477)
T1 construct: hexahistidine (His6) (N); made in house; host or cells: insect cells, baculovirus (Bac-to-Bac, Invitrogen)
Assay: Aurora A DELFIA Kinase Assay
Format: biochemical
Conditions: mouse Aurora A, 250 μM ATP; threshold less than or equal to 100 nM; read-out: IC50

T1 sequence (P97477 whole entry): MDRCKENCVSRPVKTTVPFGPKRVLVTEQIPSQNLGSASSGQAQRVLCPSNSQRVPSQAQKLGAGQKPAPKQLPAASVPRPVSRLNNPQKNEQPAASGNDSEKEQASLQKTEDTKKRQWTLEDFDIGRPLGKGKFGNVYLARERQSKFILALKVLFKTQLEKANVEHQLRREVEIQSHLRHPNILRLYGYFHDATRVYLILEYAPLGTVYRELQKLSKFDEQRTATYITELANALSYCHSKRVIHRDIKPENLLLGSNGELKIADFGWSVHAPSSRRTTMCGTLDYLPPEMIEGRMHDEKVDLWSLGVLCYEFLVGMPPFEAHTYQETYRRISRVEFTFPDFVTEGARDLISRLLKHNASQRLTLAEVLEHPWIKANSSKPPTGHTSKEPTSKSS

| SMILES | IC50 [nM] |
| --- | --- |
| COc1cccc(F)c1C1=NCc2cnc(Nc3ccc(C(=O)O)cc3)nc2-c2ccc(Cl)cc21 [Compound I-190, 4-[9-Chloro-7-(2-fluoro-6-methoxy-phenyl)-5H-benzo[c]pyrimido[4,5-e]azepin-2-ylamino]-benzoic acid] | ≤ 100 |
| C[C@H]1CN(C(=O)c2ccc(Nc3ncc4c(n3)-c3ccc(Cl)cc3C(c3c(F)cccc3F)=NC4)cc2)CCN1 [Compound I-191, {4-[9-Chloro-7-(2,6-difluoro-phenyl)-5H-benzo[c]pyrimido[4,5-e]azepin-2-ylamino]-phenyl}-(3(S)-methyl-piperazin-1-yl)-methanone] | ≤ 100 |
| NC1CN(C(=O)c2ccc(Nc3ncc4c(n3)-c3ccc(Cl)cc3C(c3ccccc3F)=NC4)cc2)C1 [Compound I-192, (3-Amino-azetidin-1-yl)-{4-[9-chloro-7-(2-fluoro-phenyl)-5H-benzo[c]pyrimido[4,5-e]azepin-2-ylamino]-phenyl}-methanone] | ≤ 100 |
| CN(C)CC1CN(C(=O)c2ccc(Nc3ncc4c(n3)-c3ccc(Cl)cc3C(c3ccccc3F)=NC4)cc2)C1 [Compound I-193, {4-[9-Chloro-7-(2-fluoro-phenyl)-5H-benzo[c]pyrimido[4,5-e]azepin-2-ylamino]-phenyl}-(3-dimethylaminomethyl-azetidin-1-yl)-methanone] | ≤ 100 |
| C[C@@H]1CN(C(=O)c2ccc(Nc3ncc4c(n3)-c3ccc(Cl)cc3C(c3c(F)cccc3F)=NC4)cc2)CCN1 [Compound I-194, {4-[9-Chloro-7-(2,6-difluoro-phenyl)-5H-benzo[c]pyrimido[4,5-e]azepin-2-ylamino]-phenyl}-(3(R)-methyl-piperazin-1-yl)-methanone] | ≤ 100 |
| O=C(c1ccc(Nc2ncc3c(n2)-c2ccc(Cl)cc2C(c2c(F)cccc2F)=NC3)cc1)N1CCNCC1 [Compound I-195, {4-[9-Chloro-7-(2,6-difluoro-phenyl)-5H-benzo[c]pyrimido[4,5-e]azepin-2-ylamino]-phenyl}-piperazin-1-yl-methanone] | ≤ 100 |
| NC1CCN(C(=O)c2ccc(Nc3ncc4c(n3)-c3ccc(Cl)cc3C(c3c(F)cccc3F)=NC4)cc2)C1 (stereo not shown) [Compound I-196, (3-Amino-pyrrolidin-1-yl)-{4-[9-chloro-7-(2,6-difluoro-phenyl)-5H-benzo[c]pyrimido[4,5-e]azepin-2-ylamino]-phenyl}-methanone] | ≤ 100 |
| CNC1CCN(C(=O)c2ccc(Nc3ncc4c(n3)-c3ccc(Cl)cc3C(c3c(F)cccc3F)=NC4)cc2)C1 (stereo not shown) [Compound I-197, {4-[9-Chloro-7-(2,6-difluoro-phenyl)-5H-benzo[c]pyrimido[4,5-e]azepin-2-ylamino]-phenyl}-(3-methylamino-pyrrolidin-1-yl)-methanone] | ≤ 100 |
| CNCCCN(C)C(=O)c1ccc(Nc2ncc3c(n2)-c2ccc(Cl)cc2C(c2c(F)cccc2F)=NC3)cc1 [Compound I-198, 4-[9-Chloro-7-(2,6-difluoro-phenyl)-5H-benzo[c]pyrimido[4,5-e]azepin-2-ylamino]-N-methyl-N-(3-methylamino-propyl)-benzamide] | ≤ 100 |
| CNC1CCN(C(=O)c2ccc(Nc3ncc4c(n3)-c3ccc(Cl)cc3C(c3c(F)cccc3OC)=NC4)cc2)C1 (stereo not shown) [Compound I-199, {4-[9-Chloro-7-(2-fluoro-6-methoxy-phenyl)-5H-benzo[c]pyrimido[4,5-e]azepin-2-ylamino]-phenyl}-(3-methylamino-pyrrolidin-1-yl)-methanone] | ≤ 100 |
| CN(C)C1CN(C(=O)c2cccc(Nc3ncc4c(n3)-c3ccc(Cl)cc3C(c3c(F)cccc3F)=NC4)c2)C1 [Compound I-204, 9-chloro-7-(2,6-difluorophenyl)-N-(3-{[3-(dimethylamino)azetidin-1-yl]carbonyl}phenyl)-5H-pyrimido[5,4-d][2]benzazepin-2-amine] | ≤ 100 |
| CN(C)C1CCN(C(=O)c2cccc(Nc3ncc4c(n3)-c3ccc(Cl)cc3C(c3c(F)cccc3F)=NC4)c2)CC1 [Compound I-205, 9-chloro-7-(2,6-difluorophenyl)-N-(3-{[4-(dimethylamino)piperidin-1-yl]carbonyl}phenyl)-5H-pyrimido[5,4-d][2]benzazepin-2-amine] | ≤ 100 |
| CN(C)C1CCN(C(=O)c2cccc(Nc3ncc4c(n3)-c3ccc(Cl)cc3C(c3c(F)cccc3F)=NC4)c2)C1 (stereo not shown) [Compound I-206, 9-chloro-7-(2,6-difluorophenyl)-N-(3-{[3-(dimethylamino)pyrrolidin-1-yl]carbonyl}phenyl)-5H-pyrimido[5,4-d][2]benzazepin-2-amine] | ≤ 100 |
| CCN(CC)CCCN1CCN(C(=O)c2ccc(Nc3ncc4c(n3)-c3ccc(Cl)cc3C(c3ccccc3F)=NC4)cc2)CC1 [Compound I-208, 9-chloro-N-[4-({4-[3-(diethylamino)propyl]piperazin-1-yl}carbonyl)phenyl]-7-(2-fluorophenyl)-5H-pyrimido[5,4-d][2]benzazepin-2-amine] | ≤ 100 |
| CCN(CC)CCN1CCN(C(=O)c2ccc(Nc3ncc4c(n3)-c3ccc(Cl)cc3C(c3ccccc3F)=NC4)cc2)CC1 [Compound I-209, 9-chloro-N-[4-({4-[2-(diethylamino)ethyl]piperazin-1-yl}carbonyl)phenyl]-7-(2-fluorophenyl)-5H-pyrimido[5,4-d][2]benzazepin-2-amine] | ≤ 100 |
| CN(C)CCCN1CCN(C(=O)c2ccc(Nc3ncc4c(n3)-c3ccc(Cl)cc3C(c3ccccc3F)=NC4)cc2)CC1 [Compound I-210, 9-chloro-N-[4-({4-[3-(dimethylamino)propyl]piperazin-1-yl}carbonyl)phenyl]-7-(2-fluorophenyl)-5H-pyrimido[5,4-d][2]benzazepin-2-amine] | ≤ 100 |
| CN1CCCC(CN2CCN(C(=O)c3ccc(Nc4ncc5c(n4)-c4ccc(Cl)cc4C(c4ccccc4F)=NC5)cc3)CC2)C1 (stereo not shown) [Compound I-211, 9-chloro-7-(2-fluorophenyl)-N-[4-({4-[(1-methylpiperidin-3-yl)methyl]piperazin-1-yl}carbonyl)phenyl]-5H-pyrimido[5,4-d][2]benzazepin-2-amine] | ≤ 100 |
| O=C(c1ccc(Nc2ncc3c(n2)-c2ccc(Cl)cc2C(c2ccccc2F)=NC3)cc1Cl)N1CCN(CCN2CCCC2)CC1 [Compound I-213, 9-chloro-N-(3-chloro-4-{[4-(2-pyrrolidin-1-ylethyl)piperazin-1-yl]carbonyl}phenyl)-7-(2-fluorophenyl)-5H-pyrimido[5,4-d][2]benzazepin-2-amine] | ≤ 100 |
| CC1CN(C(=O)c2ccc(Nc3ncc4c(n3)-c3ccc(Cl)cc3C(c3ccccc3F)=NC4)cc2Cl)CCN1 (stereo not shown) [Compound I-214, 9-chloro-N-{3-chloro-4-[(3-methylpiperazin-1-yl)carbonyl]phenyl}-7-(2-fluorophenyl)-5H-pyrimido[5,4-d][2]benzazepin-2-amine] | ≤ 100 |

Further lines, results first:

| IC50 [nM] | SMILES |
| --- | --- |
| ≤ 100 | O=C(c1ccc(Nc2ncc3c(n2)-c2ccc(Cl)cc2C(c2ccccc2F)=NC3)cc1)N1CCN(CCCN2CCCCC2)CC1 [Compound I-181, {4-[9-Chloro-7-(2-fluoro-phenyl)-5H-benzo[c]pyrimido[4,5-e]azepin-2-ylamino]-phenyl}-[4-(3-piperidin-1-yl-propyl)-piperazin-1-yl]-methanone] |
| ≤ 100 | O=C(c1ccc(Nc2ncc3c(n2)-c2ccc(Cl)cc2C(c2ccccc2F)=NC3)cc1)N1CCN(CCN2CCCCC2)CC1 [Compound I-182, {4-[9-Chloro-7-(2-fluoro-phenyl)-5H-benzo[c]pyrimido[4,5-e]azepin-2-ylamino]-phenyl}-[4-(2-piperidin-1-yl-ethyl)-piperazin-1-yl]-methanone] |
| ≤ 100 | CN(C)C1CCN(C(=O)c2ccc(Nc3ncc4c(n3)-c3ccc(Cl)cc3C(c3c(F)cccc3F)=NC4)cc2)CC1 [Compound I-183, {4-[9-Chloro-7-(2,6-difluoro-phenyl)-5H-benzo[c]pyrimido[4,5-e]azepin-2-ylamino]-phenyl}-(4-dimethylamino-piperidin-1-yl)-methanone] |
| ≤ 100 | CN1CCN(C(=O)c2ccc(Nc3ncc4c(n3)-c3ccc(Cl)cc3C(c3c(F)cccc3F)=NC4)cc2)CC1 [Compound I-184, {4-[9-Chloro-7-(2,6-difluoro-phenyl)-5H-benzo[c]pyrimido[4,5-e]azepin-2-ylamino]-phenyl}-(4-methyl-piperazin-1-yl)-methanone] |
| ≤ 100 | CN(C)CCCN(C)C(=O)c1ccc(Nc2ncc3c(n2)-c2ccc(Cl)cc2C(c2c(F)cccc2F)=NC3)cc1 [Compound I-185, 4-[9-Chloro-7-(2,6-difluoro-phenyl)-5H-benzo[c]pyrimido[4,5-e]azepin-2-ylamino]-N-(3-dimethylamino-propyl)-N-methyl-benzamide] |
| ≤ 100 | COc1cccc(F)c1C1=NCc2cnc(Nc3ccc(C(=O)N4CCC(N(C)C)CC4)cc3)nc2-c2ccc(Cl)cc21 [Compound I-186, {4-[9-Chloro-7-(2-fluoro-6-methoxy-phenyl)-5H-benzo[c]pyrimido-[4,5-e]azepin-2-ylamino]-phenyl}-(4-dimethylamino-piperidin-1-yl)-methanone] |
| ≤ 100 | CCCN(CCC)CCN1CCN(C(=O)c2ccc(Nc3ncc4c(n3)-c3ccc(Cl)cc3C(c3ccccc3F)=NC4)cc2)CC1 [Compound I-187, {4-[9-Chloro-7-(2-fluoro-phenyl)-5H-benzo[c]pyrimido[4,5-e]azepin-2-ylamino]-phenyl}-[4-(2-dipropylamino-ethyl)-piperazin-1-yl]-methanone] |
| ≤ 100 | O=C(c1ccc(Nc2ncc3c(n2)-c2ccc(Cl)cc2C(c2ccccc2F)=NC3)cc1)N1CCN(CCCN2CCCC2)CC1 [Compound I-188, {4-[9-Chloro-7-(2-fluoro-phenyl)-5H-benzo[c]pyrimido[4,5-e]azepin-2-ylamino]-phenyl}-[4-(3-pyrrolidin-1-yl-propyl)-piperazin-1-yl]-methanone] |
| ≤ 100 | O=C(c1ccc(Nc2ncc3c(n2)-c2ccc(Cl)cc2C(c2ccccc2F)=NC3)cc1)N1CCN(CCN2CCOCC2)CC1 [Compound I-189, {4-[9-Chloro-7-(2-fluoro-phenyl)-5H-benzo[c]pyrimido[4,5-e]azepin-2-ylamino]-phenyl}-[4-(2-morpholin-4-yl-ethyl)-piperazin-1-yl]-methanone] |

From patent US9102678B2, “Compounds and methods for inhibiting mitotic progression” (Millennium Pharmaceuticals, Inc., priority 2004, dated 2015)
